Laboratory results reported in patent US10597388B2, “Pyridazinone herbicides” (FMC CORPORATION, priority 2014, dated 2020).

What was measured:
Type in all cases: in vivo
[1] = tested on: waterhemp_RES2 (ALS & HPPD resistant common waterhemp, Amaranthus rudis); test: Test E greenhouse herbicide test, postemergence
How it was run: (§1)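 Formulated compounds are applied postemergence to potted waterhemp at 1–4 leaves (2–18 cm high). Plants stay in the greenhouse for 14 to 21 d before visual comparison with controls, and control is scored from 0 (none) to 100 (complete).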

[2] = tested on: waterhemp_RES1 (ALS & Triazine resistant common waterhemp, Amaranthus rudis); test: Test E greenhouse herbicide test, postemergence
How it was run: as §1

[3] = tested on: lambsquarters (Chenopodium album); test: Test E greenhouse herbicide test, pre- and postemergence; details: Preemergence
How it was run: (§2)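 Seedlings reaching 2–18 cm (1- to 4-leaf stage) received foliar treatment, while seeds in silt loam received a soil surface spray; the vehicle in each case was a non-phytotoxic solvent mixture including surfactant. Visual scoring versus controls followed 14–21 d later on a 0–100 scale.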

[4] = tested on: nutsedge, yellow (yellow nutsedge, Cyperus esculentus); test: as above; details: Preemergence
How it was run: as §2

[5] = tested on: dayflower (Virginia (VA) dayflower, Commelina virginica); test: as above
How it was run: as §2

[6] = tested on: sandbur (southem sandbur, Cenchrus echinatus); test: as above
How it was run: as §2

[7] = tested on: Italian ryegrass (Lolium multiflorum); test: as above
How it was run: as §2

[8] = tested on: foxtail, green (green foxtail, Setaria viridis); test: as above; details: Preemergence
How it was run: as §2

corn (Zea mays) = test: as above
How it was run: as §2

[9] = tested on: beggarticks (hairy beggarticks, Bidens pilosa); test: as above
How it was run: as §2

[10] = tested on: waterhemp (common waterhemp, Amaranthus rudis); test: as above
How it was run: as §2

kochia (Kochia scoparia) = test: as above
How it was run: as §2

[11] = tested on: velvetleaf (Abutilon theophrasti); test: as above; details: Preemergence
How it was run: as §2

[12] = 16 g ai/ha, visual, scale 0 no effect to 100 complete control
[13] = 31 g ai/ha, visual, scale 0 no effect to 100 complete control
[14] = 62 g ai/ha, scale 0 to 100 (0 no effect, 100 complete control)
[15] = 125 g ai/ha, scale 0 to 100 (0 no effect, 100 complete control)
[16] = 16 g ai/ha, scale 0 to 100, 0 no effect, 100 complete control
[17] = 31 g ai/ha, scale 0 to 100, 0 no effect, 100 complete control
[18] = 62 g ai/ha, Postemergence, scale 0 to 100 (0 no effect, 100 complete control)
[19] = 62 g ai/ha, Preemergence, scale 0 to 100 (0 no effect, 100 complete control)
[20] = 125 g ai/ha, Postemergence, scale 0 to 100 (0 no effect, 100 complete control)
[21] = 125 g ai/ha, Preemergence, scale 0 to 100 (0 no effect, 100 complete control)
[22] = Postemergence, 16 g ai/ha, visual, scale 0 no effect to 100 complete control
[23] = Postemergence, 31 g ai/ha, visual, scale 0 no effect to 100 complete control
[24] = Preemergence, 16 g ai/ha, scale 0 to 100, 0 no effect, 100 complete control
[25] = Preemergence, 31 g ai/ha, scale 0 to 100, 0 no effect, 100 complete control
[26] = 250 g ai/ha, scale 0 to 100 (0 no effect, 100 complete control)
[27] = 250 g ai/ha, visual, scale 0 no effect to 100 complete control
[28] = 250 g ai/ha, Postemergence, scale 0 to 100 (0 no effect, 100 complete control)
[29] = Preemergence, 250 g ai/ha, visual, scale 0 no effect to 100 complete control

Cc1ccc2sc(C)c(-c3c(OC(=O)OC(C)C)c(C)nn(C)c3=O)c2c1 [Compound 66]
Plant response rating, Waterhemp_RES2 [1, 12]: 40
Plant response rating, Waterhemp_RES2 [1, 13]: 40
Plant response rating, Waterhemp_RES2 [1, 14]: 40
Plant response rating, Waterhemp_RES2 [1, 15]: 50
Plant response rating, Waterhemp_RES1 [2, 12]: 70
Plant response rating, Waterhemp_RES1 [2, 13]: 80
Plant response rating, Waterhemp_RES1 [2, 14]: 75
Plant response rating, Waterhemp_RES1 [2, 15]: 80
Plant response rating, Lambsquarters [3, 14]: 100
Plant response rating, Lambsquarters [3, 15]: 100
Plant response rating, Lambsquarters [3, 16]: 5
Plant response rating, Lambsquarters [3, 17]: 90
Plant response rating, Nutsedge, Yellow [4, 14]: 65
Plant response rating, Nutsedge, Yellow [4, 15]: 50
Plant response rating, Nutsedge, Yellow [4, 16]: 0
Plant response rating, Nutsedge, Yellow [4, 17]: 5
Plant response rating, Dayflower, VA [5, 18]: 60
Plant response rating, Dayflower, VA [5, 19]: 0
Plant response rating, Dayflower, VA [5, 20]: 50
Plant response rating, Dayflower, VA [5, 21]: 20
Plant response rating, Dayflower, VA [5, 22]: 0
Plant response rating, Dayflower, VA [5, 23]: 25
Plant response rating, Dayflower, VA [5, 24]: 0
Plant response rating, Dayflower, VA [5, 25]: 0
Plant response rating, Sandbur [6, 18]: 50
Plant response rating, Sandbur [6, 19]: 10
Plant response rating, Sandbur [6, 20]: 60
Plant response rating, Sandbur [6, 21]: 70
Plant response rating, Sandbur [6, 22]: 25
Plant response rating, Sandbur [6, 23]: 40
Plant response rating, Sandbur [6, 24]: 0
Plant response rating, Sandbur [6, 25]: 0
Plant response rating, Ryegrass, Italian [7, 18]: 40
Plant response rating, Ryegrass, Italian [7, 19]: 90
Plant response rating, Ryegrass, Italian [7, 20]: 50
Plant response rating, Ryegrass, Italian [7, 21]: 100
Plant response rating, Ryegrass, Italian [7, 22]: 20
Plant response rating, Ryegrass, Italian [7, 23]: 30
Plant response rating, Ryegrass, Italian [7, 24]: 40
Plant response rating, Ryegrass, Italian [7, 25]: 65
Plant response rating, Foxtail, Green [8, 14]: 35
Plant response rating, Foxtail, Green [8, 15]: 70
Plant response rating, Foxtail, Green [8, 16]: 0
Plant response rating, Foxtail, Green [8, 17]: 0
Plant response rating, Corn (corn (Zea mays); [18]): 10
Plant response rating, Corn (corn (Zea mays); [19]): 0
Plant response rating, Corn (corn (Zea mays); [20]): 15
Plant response rating, Corn (corn (Zea mays); [21]): 20
Plant response rating, Corn (corn (Zea mays); [22]): 0
Plant response rating, Corn (corn (Zea mays); [23]): 0
Plant response rating, Corn (corn (Zea mays); [24]): 0
Plant response rating, Corn (corn (Zea mays); [25]): 0
Plant response rating, Beggarticks [9, 18]: 90
Plant response rating, Beggarticks [9, 19]: 95
Plant response rating, Beggarticks [9, 20]: 100
Plant response rating, Beggarticks [9, 21]: 100
Plant response rating, Beggarticks [9, 22]: 75
Plant response rating, Beggarticks [9, 23]: 80
Plant response rating, Beggarticks [9, 24]: 65
Plant response rating, Beggarticks [9, 25]: 70
Plant response rating, Waterhemp [10, 18]: 75
Plant response rating, Waterhemp [10, 19]: 80
Plant response rating, Waterhemp [10, 20]: 80
Plant response rating, Waterhemp [10, 21]: 90
Plant response rating, Waterhemp [10, 22]: 70
Plant response rating, Waterhemp [10, 23]: 65
Plant response rating, Waterhemp [10, 24]: 0
Plant response rating, Waterhemp [10, 25]: 65
Plant response rating, Kochia (kochia (Kochia scoparia); [18]): 90
Plant response rating, Kochia (kochia (Kochia scoparia); [19]): 60
Plant response rating, Kochia (kochia (Kochia scoparia); [20]): 95
Plant response rating, Kochia (kochia (Kochia scoparia); [21]): 90
Plant response rating, Kochia (kochia (Kochia scoparia); [22]): 90
Plant response rating, Kochia (kochia (Kochia scoparia); [23]): 95
Plant response rating, Kochia (kochia (Kochia scoparia); [24]): 0
Plant response rating, Kochia (kochia (Kochia scoparia); [25]): 0
Plant response rating, Velvetleaf [11, 14]: 20
Plant response rating, Velvetleaf [11, 15]: 80
Plant response rating, Velvetleaf [11, 16]: 0
Plant response rating, Velvetleaf [11, 17]: 0

Cc1nn(C)c(=O)c(-c2ccc(Br)c3ccccc23)c1O [Compound 75]
Plant response rating, Waterhemp_RES2 [1, 13]: 60
Plant response rating, Waterhemp_RES2 [1, 14]: 60
Plant response rating, Waterhemp_RES2 [1, 15]: 60
Plant response rating, Waterhemp_RES2 [1, 26]: 75
Plant response rating, Waterhemp_RES1 [2, 13]: 90
Plant response rating, Waterhemp_RES1 [2, 14]: 90
Plant response rating, Waterhemp_RES1 [2, 15]: 95
Plant response rating, Waterhemp_RES1 [2, 26]: 90
Plant response rating, Lambsquarters [3, 14]: 100
Plant response rating, Lambsquarters [3, 15]: 100
Plant response rating, Lambsquarters [3, 17]: 100
Plant response rating, Lambsquarters [3, 27]: 100
Plant response rating, Nutsedge, Yellow [4, 14]: 10
Plant response rating, Nutsedge, Yellow [4, 15]: 70
Plant response rating, Nutsedge, Yellow [4, 17]: 0
Plant response rating, Nutsedge, Yellow [4, 27]: 65
Plant response rating, Dayflower, VA [5, 18]: 50
Plant response rating, Dayflower, VA [5, 19]: 10
Plant response rating, Dayflower, VA [5, 20]: 50
Plant response rating, Dayflower, VA [5, 21]: 60
Plant response rating, Dayflower, VA [5, 28]: 65
Plant response rating, Dayflower, VA [5, 23]: 30
Plant response rating, Dayflower, VA [5, 25]: 10
Plant response rating, Dayflower, VA [5, 29]: 75
Plant response rating, Sandbur [6, 18]: 20
Plant response rating, Sandbur [6, 19]: 10
Plant response rating, Sandbur [6, 20]: 20
Plant response rating, Sandbur [6, 21]: 40
Plant response rating, Sandbur [6, 28]: 30
Plant response rating, Sandbur [6, 23]: 10
Plant response rating, Sandbur [6, 25]: 0
Plant response rating, Sandbur [6, 29]: 70
Plant response rating, Ryegrass, Italian [7, 18]: 80
Plant response rating, Ryegrass, Italian [7, 19]: 100
Plant response rating, Ryegrass, Italian [7, 20]: 85
Plant response rating, Ryegrass, Italian [7, 21]: 100
Plant response rating, Ryegrass, Italian [7, 28]: 90
Plant response rating, Ryegrass, Italian [7, 23]: 75
Plant response rating, Ryegrass, Italian [7, 25]: 100
Plant response rating, Ryegrass, Italian [7, 29]: 100
Plant response rating, Foxtail, Green [8, 14]: 0
Plant response rating, Foxtail, Green [8, 15]: 0
Plant response rating, Foxtail, Green [8, 17]: 0
Plant response rating, Foxtail, Green [8, 27]: 90
Plant response rating, Corn (corn (Zea mays); [18]): 0
Plant response rating, Corn (corn (Zea mays); [19]): 0
Plant response rating, Corn (corn (Zea mays); [20]): 0
Plant response rating, Corn (corn (Zea mays); [21]): 0
Plant response rating, Corn (corn (Zea mays); [28]): 0
Plant response rating, Corn (corn (Zea mays); [23]): 0
Plant response rating, Corn (corn (Zea mays); [25]): 0
Plant response rating, Corn (corn (Zea mays); [29]): 35
Plant response rating, Beggarticks [9, 18]: 95
Plant response rating, Beggarticks [9, 19]: 80
Plant response rating, Beggarticks [9, 20]: 100
Plant response rating, Beggarticks [9, 21]: 100
Plant response rating, Beggarticks [9, 28]: 100
Plant response rating, Beggarticks [9, 23]: 100
Plant response rating, Beggarticks [9, 25]: 35
Plant response rating, Beggarticks [9, 29]: 100
Plant response rating, Waterhemp [10, 18]: 90
Plant response rating, Waterhemp [10, 19]: 60
Plant response rating, Waterhemp [10, 20]: 90
Plant response rating, Waterhemp [10, 21]: 100
Plant response rating, Waterhemp [10, 28]: 95
Plant response rating, Waterhemp [10, 23]: 80
Plant response rating, Waterhemp [10, 25]: 50
Plant response rating, Waterhemp [10, 29]: 100
Plant response rating, Kochia (kochia (Kochia scoparia); [18]): 98
Plant response rating, Kochia (kochia (Kochia scoparia); [19]): 100
Plant response rating, Kochia (kochia (Kochia scoparia); [20]): 100
Plant response rating, Kochia (kochia (Kochia scoparia); [21]): 100
Plant response rating, Kochia (kochia (Kochia scoparia); [28]): 100
Plant response rating, Kochia (kochia (Kochia scoparia); [23]): 90
Plant response rating, Kochia (kochia (Kochia scoparia); [25]): 98
Plant response rating, Kochia (kochia (Kochia scoparia); [29]): 100
Plant response rating, Velvetleaf [11, 14]: 85
Plant response rating, Velvetleaf [11, 15]: 100
Plant response rating, Velvetleaf [11, 17]: 35
Plant response rating, Velvetleaf [11, 27]: 98
